These results are taken from patent US20090111801A1, “SUBSTITUTED PYRAZINONE DERIVATIVES FOR USE AS A MEDICINE” (Janssen Pharmaceutica N.V., priority 2006, published 2009).

The target of one experiment is T1, hα2A receptor (Homo sapiens, UniProt P08913).
T1 construct: expressed in transfected cells; host or cells: CHO cells, stably transfected; membrane preparation
T1 sequence (P08913 1-465): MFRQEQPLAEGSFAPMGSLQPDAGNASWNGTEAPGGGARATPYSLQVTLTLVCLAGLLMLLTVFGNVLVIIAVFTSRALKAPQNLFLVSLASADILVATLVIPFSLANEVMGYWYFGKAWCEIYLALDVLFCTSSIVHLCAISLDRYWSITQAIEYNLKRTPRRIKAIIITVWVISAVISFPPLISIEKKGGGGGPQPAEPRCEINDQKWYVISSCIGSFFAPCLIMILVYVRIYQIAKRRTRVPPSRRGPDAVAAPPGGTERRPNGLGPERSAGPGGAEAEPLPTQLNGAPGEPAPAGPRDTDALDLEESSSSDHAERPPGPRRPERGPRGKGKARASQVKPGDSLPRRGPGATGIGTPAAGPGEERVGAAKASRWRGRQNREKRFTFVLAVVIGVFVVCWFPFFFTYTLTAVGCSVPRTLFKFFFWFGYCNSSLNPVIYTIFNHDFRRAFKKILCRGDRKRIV
The experiment can be described thus: Radioligand binding experiment for α2A-adrenoceptor ([3H]raulwolscine, CHO cell membranes). Conditions: [3H]raulwolscine binding; for IC50: read-out: h-α2A pIC50 (converted).

For another experiment, the target named is T2, hα2C receptor (Homo sapiens, UniProt P18825).
T2 construct: expressed in transfected cells; host or cells: CHO cells, stably transfected; membrane preparation
T2 sequence (P18825 1-462): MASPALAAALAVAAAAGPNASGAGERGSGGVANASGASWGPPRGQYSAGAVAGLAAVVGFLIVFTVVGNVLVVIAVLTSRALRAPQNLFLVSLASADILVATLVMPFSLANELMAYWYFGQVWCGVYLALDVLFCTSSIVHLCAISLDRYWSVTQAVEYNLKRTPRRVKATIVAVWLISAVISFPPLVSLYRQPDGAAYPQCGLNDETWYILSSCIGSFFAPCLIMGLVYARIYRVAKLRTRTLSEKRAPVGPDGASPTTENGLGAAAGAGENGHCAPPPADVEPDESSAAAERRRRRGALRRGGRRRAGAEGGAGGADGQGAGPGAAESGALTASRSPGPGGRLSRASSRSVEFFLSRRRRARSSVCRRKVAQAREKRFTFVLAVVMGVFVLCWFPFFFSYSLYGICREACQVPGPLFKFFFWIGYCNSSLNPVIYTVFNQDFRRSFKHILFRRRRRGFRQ
The experiment can be described thus: Radioligand binding experiment for α2C-adrenoceptor ([3H]raulwolscine, CHO cell membranes). Conditions: [3H]raulwolscine binding; for IC50: read-out: h-α2C pIC50 (converted).

Another experiment addresses T3, 5HT-Transporter (Homo sapiens, UniProt P31645).
T3 construct: Human platelet membranes (Oceanix Biosciences Corporation, Hanover, Md., USA) were thawed; tissue Oceanix Biosciences Corporation, Hanover, Md., USA; host or cells: human platelet membranes
In words: Binding experiment for the 5HT-transporter ([3H]paroxetine, human platelet membranes). Conditions: [3H]paroxetine 0.5 nM; for IC50: read-out: h-5HTT pIC50 (converted). In a few lines:
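Competition binding of [3H]paroxetine to human platelet membranes in Tris-HCl 50 mM, 120 mM NaCl, 5 mM KCl, with filtration and scintillation counting.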

T3 sequence (P31645 whole entry): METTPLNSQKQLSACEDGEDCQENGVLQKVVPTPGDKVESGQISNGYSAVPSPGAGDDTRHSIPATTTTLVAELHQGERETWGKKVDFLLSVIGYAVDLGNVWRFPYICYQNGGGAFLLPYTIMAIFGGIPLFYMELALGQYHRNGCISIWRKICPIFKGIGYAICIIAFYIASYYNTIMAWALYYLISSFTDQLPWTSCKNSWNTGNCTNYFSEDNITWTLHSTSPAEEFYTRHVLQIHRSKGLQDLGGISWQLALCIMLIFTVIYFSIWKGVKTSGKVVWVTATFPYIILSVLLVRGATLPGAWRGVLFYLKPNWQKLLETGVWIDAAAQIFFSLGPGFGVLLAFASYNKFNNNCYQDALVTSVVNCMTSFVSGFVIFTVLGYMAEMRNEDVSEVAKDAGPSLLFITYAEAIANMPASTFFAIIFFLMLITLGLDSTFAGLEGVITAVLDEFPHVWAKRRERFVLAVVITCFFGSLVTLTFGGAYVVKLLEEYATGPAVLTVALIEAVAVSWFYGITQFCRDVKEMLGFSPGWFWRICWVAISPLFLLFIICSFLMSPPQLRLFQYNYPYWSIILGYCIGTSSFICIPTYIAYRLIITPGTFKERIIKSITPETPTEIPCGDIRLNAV

As for `C/C(=C\c1ccccc1)CN1CCC(Nc2nccn(Cc3ccc(CNC(=O)NCCc4ccccc4)cc3)c2=O)CC1` [1-125], the IC50 on hα2A receptor was 158 nM; on hα2C receptor, 63.1 nM; at 5HT-Transporter, 501 nM.

With `COC(=O)CN(C)Cc1ccc(-n2ccnc(NC3CCN(C/C(C)=C/c4ccccc4)CC3)c2=O)cc1` [1-99], the IC50 at hα2A receptor was 79.4 nM; at hα2C receptor it was 5.01 nM; on 5HT-Transporter it was 1000 nM.

Consider `COc1cc(CNC(=O)NCc2ccc(Cn3ccnc(NC4CCN(C/C(C)=C/c5ccccc5)CC4)c3=O)cc2)cc(OC)c1` [1-126], for which the IC50 was 251 nM on hα2A receptor, 39.8 nM at hα2C receptor and 501 nM on 5HT-Transporter.

Regarding `COc1ccc(-c2nnc(Cn3ccnc(N4CCN(C/C(C)=C/c5ccccc5)CC4)c3=O)o2)cc1` [13-4], the IC50 on hα2A receptor was 63.1 nM; at hα2C receptor, 63.1 nM; at 5HT-Transporter, 398 nM.

`CCN(CC)c1ccc(C(=O)Cn2ccnc(NC3CCN(C/C(C)=C/c4ccccc4)CC3)c2=O)cc1` [1-18]: the values for the IC50 at hα2A receptor, on hα2C receptor and on 5HT-Transporter were 39.8 nM, 12.6 nM and 1000 nM, respectively.

`C/C(=C\c1ccccc1)CN1CCC(Nc2nccn(-c3ccc(CNCC4CCCO4)cc3)c2=O)CC1` (stereo not drawn) [1-146]: the “h-α2A pIC50” value on hα2A receptor is recorded as 7.0. At hα2C receptor, the “h-α2C pIC50” value is 8.6. For the same compound, the “h-5HTT pIC50” value on 5HT-Transporter came to 6.3.

Regarding `C/C(=C\c1ccccc1)CN1CCC(Nc2nccn(CC3CCCCO3)c2=O)CC1` (stereo not drawn) [6-1], the values for the IC50 at hα2A receptor, at hα2C receptor and at 5HT-Transporter were 126 nM, 20 nM and 1000 nM, respectively.

In the case of `C/C(=C\c1ccccc1)CN1CCC(Nc2nccn(CC(=O)OCc3ccccc3)c2=O)CC1` [3-20], the IC50 on hα2A receptor was 100 nM; on hα2C receptor, 15.8 nM; on 5HT-Transporter it was 3980 nM.

Turning to `COc1cc(CNC(=O)Cn2ccnc(NC3CCN(C/C(C)=C/c4ccccc4)CC3)c2=O)cc(OC)c1` [1-65], the IC50 is 100 nM on hα2A receptor, 3.98 nM on hα2C receptor and 794 nM at 5HT-Transporter.

In the case of `CCCNCc1cccc(-n2ccnc(NC3CCN(C/C(C)=C/c4ccccc4)CC3)c2=O)c1` [1-12], the “h-α2A pIC50” value on hα2A receptor is 8.4. Further, the “h-α2C pIC50” value on hα2C receptor is given as 9.0. The “h-5HTT pIC50” value at 5HT-Transporter was found to be 6.1.

Take `C/C(=C\c1ccccc1)CN1CCC(Nc2nccn(CC(=O)N3CCC(Cc4ccccc4)CC3)c2=O)CC1` [2-13]: the results for the IC50 at hα2A receptor, at hα2C receptor and on 5HT-Transporter were 100 nM, 5.01 nM and 251 nM, respectively.

With `CCOC(=O)N1CCC(NCc2ccc(-n3ccnc(NC4CCN(C/C(C)=C/c5ccccc5)CC4)c3=O)cc2)CC1` [1-128], on hα2A receptor, the “h-α2A pIC50” value is on record as 7.0. Further, at hα2C receptor, the “h-α2C pIC50” value is reported as 7.9. For the same compound, the “h-5HTT pIC50” value on 5HT-Transporter is 5.9.

On to `C/C(=C\c1ccccc1)CN1CCC(Nc2nccn(CCCNC(=O)c3ccccc3)c2=O)CC1` [1-72], for which the values for the IC50 at hα2A receptor, on hα2C receptor and at 5HT-Transporter were 126 nM, 3.16 nM and 1580 nM, respectively.

On to `C/C(=C\c1ccccc1)CN1CCN(c2nccn(Cc3ccc(CN)cc3)c2=O)CC1` [8-1], for which the IC50 at hα2A receptor is 39.8 nM; on hα2C receptor, 12.6 nM; at 5HT-Transporter, 1000 nM.

For the compound `COCCN(C)Cc1ccc(-n2ccnc(NC3CCN(C/C(C)=C/c4ccccc4)CC3)c2=O)cc1` [1-26], at hα2A receptor, the “h-α2A pIC50” value came to 7.2. For the same compound, the “h-α2C pIC50” value at hα2C receptor stood at 8.7. Also, the “h-5HTT pIC50” value on 5HT-Transporter is given as 5.8.

For `C/C(=C\c1ccccc1)CN1CCC(Nc2nccn(-c3ccccc3)c2=O)CC1` [5-1], the IC50 at hα2A receptor was 31.6 nM; on hα2C receptor, 5.01 nM; at 5HT-Transporter, 1260 nM.

With `C/C(=C\c1ccccc1)CN1CCC(Nc2nccn(CC(=O)Nc3ccccc3)c2=O)CC1` [1-40], the results for the IC50 on hα2A receptor, at hα2C receptor and at 5HT-Transporter were 50.1 nM, 3.16 nM and 1000 nM, respectively.

Regarding `C/C(=C\c1ccccc1)CN1CCC(Nc2nccn(Cc3ccc(CNC(=O)NCCS)cc3)c2=O)CC1` [1-116], the figures for the IC50 at hα2A receptor, at hα2C receptor and on 5HT-Transporter were 200 nM, 126 nM and 316 nM, respectively.

Turning to `C/C(=C\c1ccccc1)CN1CCC(Nc2nccn(CC(=O)N(CCCN3CCCC3)Cc3ccc(F)cc3)c2=O)CC1` [1-137], the IC50 was 12.6 nM at hα2A receptor, 0.794 nM at hα2C receptor and 1000 nM at 5HT-Transporter.

For the compound `C/C(=C\c1ccccc1)CN1CCC(Nc2nccn(CCCNS(=O)(=O)c3ccccc3)c2=O)CC1` [1-158], the values for the IC50 on hα2A receptor, on hα2C receptor and on 5HT-Transporter were 100 nM, 6.31 nM and 158 nM, respectively.

`O=C1c2ccccc2C(=O)N1CCCn1ccnc(NC2CCN(C/C=C/c3ccccc3)CC2)c1=O` [16-8]: the IC50 was 501 nM at hα2A receptor, 12.6 nM at hα2C receptor and 200 nM on 5HT-Transporter.

For the compound `C/C(=C\c1ccccc1)CN1CCN(c2nccn(CCCNC(=O)OC(C)(C)C)c2=O)CC1` [8-3], the IC50 is 398 nM at hα2A receptor, 79.4 nM on hα2C receptor and 2510 nM at 5HT-Transporter.

With `C/C(=C\c1ccccc1)CN1CCC(N(C)c2nccn(Cc3ccc(CN)cc3)c2=O)CC1` [15-1], the results for the IC50 on hα2A receptor, on hα2C receptor and at 5HT-Transporter were 25.1 nM, 10 nM and 501 nM, respectively.

For the compound `COC(=O)c1ccc(-n2ccnc(NC3CCN(C/C(C)=C/c4ccccc4)CC3)c2=O)cc1` [3-12], the results for the IC50 at hα2A receptor, on hα2C receptor and at 5HT-Transporter were 31.6 nM, 15.8 nM and 501 nM, respectively.

As for `CC(=O)NCc1ccc(Cn2ccnc(NC3CCN(C/C(C)=C/c4ccccc4)CC3)c2=O)cc1` [1-30], the IC50 at hα2A receptor is 158 nM; at hα2C receptor it was 31.6 nM; at 5HT-Transporter, 1260 nM.

In the case of `C/C(=C\c1ccccc1)CN1CCC(Nc2nccn(-c3ccc(NCCc4ccccc4)cc3)c2=O)CC1` [1-59], the IC50 at hα2A receptor was 79.4 nM; at hα2C receptor, 10 nM; on 5HT-Transporter, 1260 nM.

For the compound `C/C(=C\c1ccccc1)CN1CCC(Nc2nccn(Cc3cccc(Br)c3)c2=O)CC1` [5-15], the IC50 on hα2A receptor was 79.4 nM; on hα2C receptor it was 25.1 nM; at 5HT-Transporter, 398 nM.

As for `COCCN(C)C(=O)Cn1ccnc(NC2CCN(C/C(C)=C/c3ccccc3)CC2)c1=O` [1-24], the results for the IC50 at hα2A receptor, at hα2C receptor and at 5HT-Transporter were 126 nM, 7.94 nM and 3160 nM, respectively.

As to `C/C(=C\c1ccccc1)CN1CCC(Nc2nccn(-c3cccc(N(Cc4ccccc4)c4ccccc4)c3)c2=O)CC1` [1-70], the IC50 was 31.6 nM on hα2A receptor, 20 nM on hα2C receptor and 158 nM on 5HT-Transporter.

`COC(=O)c1ccc(Cn2ccnc(NC3CCN(C/C(C)=C/c4ccccc4)CC3)c2=O)cc1` [3-14]: the IC50 at hα2A receptor was 79.4 nM; at hα2C receptor, 63.1 nM; at 5HT-Transporter it was 794 nM.

Take `C/C(=C\c1ccccc1)CN1CCC(Nc2nccn(CCC(N)=O)c2=O)CC1` [1-3]: the values for the IC50 at hα2A receptor, on hα2C receptor and at 5HT-Transporter were 200 nM, 31.6 nM and above 10000 nM, respectively.

As for `O=c1c(NC2CCN(C/C=C/c3ccccc3)CC2)nccn1Cc1ccc(Br)cc1` [16-17], the figures for the IC50 on hα2A receptor, on hα2C receptor and at 5HT-Transporter were 501 nM, 316 nM and 794 nM, respectively.

On to `C/C(=C\c1ccccc1)CN1CCC(Nc2nccn(CCOc3ccccc3)c2=O)CC1` [3-18], for which the IC50 on hα2A receptor is 126 nM; at hα2C receptor, 31.6 nM; on 5HT-Transporter, 158 nM.

On to `CC(=O)NCc1ccc(-n2ccnc(NC3CCN(C/C(C)=C/c4ccccc4)CC3)c2=O)cc1` [1-29], for which, on hα2A receptor, the “h-α2A pIC50” value was 7.0. Besides, the “h-α2C pIC50” value at hα2C receptor turned out to be 8.1. The “h-5HTT pIC50” value on 5HT-Transporter was determined as 6.0.

Turning to `C/C(=C\c1ccccc1)CN1CCC(Nc2nccn(CCN3CCOCC3)c2=O)CC1` [2-39], the IC50 at hα2A receptor was 316 nM; on hα2C receptor, 20 nM; at 5HT-Transporter, 7940 nM.

As for `CC(=O)N1CCN(C(=O)Cn2ccnc(NC3CCN(C/C(C)=C/c4ccccc4)CC3)c2=O)CC1` [2-22], the IC50 at hα2A receptor is 126 nM; on hα2C receptor, 25.1 nM; at 5HT-Transporter, above 10000 nM.

Regarding `C/C(=C\c1ccccc1)CN1CCC(Nc2nccn(Cc3ccccc3F)c2=O)CC1` [5-11], the IC50 was 158 nM on hα2A receptor, 31.6 nM at hα2C receptor and 501 nM at 5HT-Transporter.

In the case of `C/C(=C\c1ccccc1)CN1CCC(Nc2nccn(-c3ccc(N4CCC(N5CCCC5)CC4)cc3)c2=O)CC1` [2-19], the IC50 on hα2A receptor was 50.1 nM; at hα2C receptor, 5.01 nM; on 5HT-Transporter, 631 nM.
